Assays:
E. coli ATCC 25922 = assay: Photoinactivation (biocidal activity) of E. coli cell suspension after red light irradiation; assay type: cell-based; conditions: for concentration able to sterilize completely the cell suspension: in combination with EDTA 0.5 mM, 100 mW/cm2 red light (FIG. 2, FIG. 5)
Procedure: These microorganisms were used in the experiments in a stationary phase of growth.
(§1) The experimental protocol was the following:
(§2) The cell suspensions were diluted in an appropriate medium. Addition of an aliquot of stock solution of the composition to be tested to the cell suspension up to the intended final concentrations. Incubation in dark at 37° C. for 5 minutes. Irradiation (650≦λ≦850 nm; 50÷100 mW/cm2; 1÷10 minutes) of cell suspension for each dilution of the photosensitising composition.

[1] = system: Pseudomonas aeruginosa PAO-1; assay: Photoinactivation (biocidal activity) of Pseudomonas aeruginosa cell suspension after red light irradiation; assay type: cell-based
Procedure: The usefulness of the pharmaceutical compositions of the present invention has been evaluated through their activity against the Gram negative micro-organisms Pseudomonas aeruginosa PAO-1 and E. coli ATCC 25922. These microorganisms were used in the experiments in a stationary phase of growth.
as §1, §2

Substance	concentration able to sterilize completely the cell suspension (E. coli ATCC 25922; 5 min incubation) [µM]	photosensitizer concentration necessary to sterilize the cell suspension (E. coli ATCC 25922; without EDTA, 5 min incubation, 100 mW/cm2 red light (FIG. 5a)) [µM]	reduction of the initial population (E. coli ATCC 25922; compound alone, no chelating agent, 5 min incubation, irradiation 100 mW/cm2 red light (FIG. 1)) [log]	complete sterilization of the cell suspension (E. coli ATCC 25922; compound alone, no chelating agent, irradiation 100 mW/cm2 red light (FIG. 1))	concentration up to which not active (photoinactivation) ([1]; compound alone, no chelating agent, 100 mW/cm2 red light (FIG. 3)) [µM]	reduction of the population ([1]; with EDTA 0.5 mM, 1 μM concentration, 100 mW/cm2 red light (FIG. 3a)) [log]	concentration able to sterilize the cell suspension ([1]; with EDTA 0.5 mM, 100 mW/cm2 red light (FIG. 3a)) [µM]
{2(3),9(10),16(17),23(24)-tetra[1,3-bis-(trimethylammonium)propyl-2-oxy]zinc(II) phthalocyanine}octaiodide [compound 2]	1	20					
{2,3,9,10,16,17,23,24-octa[3-(N,N,N-trimethylammonium)phenoxy]zinc(II) phthalocyanine}octaiodide [compound 1]	1		4	cannot be obtained	> 40	5	5

Reference: patent US8664382B2, “Antibacterial compositions comprising metal phthalocyanine analogues” (Molteni Therapeutics S.r.l., priority 2002, dated 2014)
